Test results published in patent US20250381163A1, “Chelating Agents for Use in Cancer Therapy” (priority 2022, published 2025).
Entries after “also recorded” stand apart in the source; their conditions may differ.

Tests used:
Beas-2B cells = test: Resazurin cell survival assay, metal-induced chemoresistance and chelators; assay type: cell-based; conditions: for Reversal of metal-induced chemoresistance to doxorubicin, non-saturating chelator dose: DMPS 40 μM, EDTA 20 μM, FIG. 5
Experimental: (§1) Resazurin cell survival assays were used to determine cell survival upon chemotherapeutic and chelator challenge. 2×10^3 cells were seeded in 100 μl in 96 well plates. 24 hrs later medium was replaced with 90 μl of metal mixtures or control medium for another 24 hrs. Next a combination of chelators and chemotherapy as indicated in the figures was prepared and added as an additional 10 μl to the cells. Cells were then incubated for 72 hr (Beas-2B) or 96 hr (A549 and MCF7). A stock solution of resazurin (Sigma) was made as 880 μM in PBS adjusted to pH 7.8/filtered 0.2 μm and kept for 6 months at 4° C. Medium was replaced with 75 μl of resazurin solution (final concentration 44 μM). Cells were incubated at 37° C. for 3-4 hrs and fluorescence emission was measured at 583 nm with excitation at 555 nm using a spectrophotometer (Beckman). To test the effects of metals on doxorubicin directly, doxorubicin was incubated with metals in solution 24 hrs as a 10× solution, prior to adding to cells, whereas control cells were incubated in metals as described before.
IC50 values were calculated using Graphpad Prism. Error bars represent standard deviation of triplicate measurements.

BxPC-3 cells = test: Cell survival assay, metal exposure and chelation treatment; assay type: cell-based; conditions: BxPC3 pre-treated with metals 1:128; for Reversal of metal-induced chemoresistance to 5-FU: 150 μM chelator and 5-FU for 72 hrs, FIG. 17; for Effect of chelator on resistance/survival with nab-paclitaxel: 150 μM chelator and nab-paclitaxel for 72 hrs, FIG. 18
Experimental: as §1
Overall, the methods disclosed in the first example were used in the second example as well.

p53 [1] = assay type: biochemical; conditions: Beas-2B lysates with metals 30 min, then chelator 1 hr; naïve and loaded lysates; FIG. 23
158 mutant p53 = test: p53 folding in transfected Hep3B cells; assay type: cell-based; conditions: Hep3B transfected with 158 mutant p53; metals followed by miaDMSA; FIG. 22
Experimental: (§2) Cells were seeded in 6 well plates at 30% cell density. 24 hrs later, medium was replaced with the metal mixtures as indicated. Cells were incubated for 24 hrs and lysed with 100 μl NP-40 lysis buffer (100 mM NaCl 100 mM Tris pH8, 1% NP-40) for 15 min on ice. Cell pellets were discarded in centrifugation (10 min max) and 10% of input was taken for western blot and mixed with 4×SB. The remaining lysate was subjected to immunoprecipitation with p53 Ab240 Ab (1 ul per condition) using 30 μl NP-40 buffer washed goat-anti-mouse magnetic Dynabeads (Thermo Fisher). Lysates and beads were tumbled at 4° C. for 2 hrs and washed 3× with NO-40 buffer. Beads were taken up in 2×SB and together with inputs denatured at 95° C. in a heat block. 8% SDS page gels were used to run all of the samples on western blot. Gels were transferred on nitrocellulose membrane, blocked with milk (TBS-Tween) for 1 hr tumbling and incubated in p53 DO-1 (Santa Cruz Ab, 1:2000) ON at 4° C. […] The blot was washed with TBS-tween 3× and the signal was measured in a Li-Cor Odyssey. Quantification was measured in the software of Li-Cor and plotted corrected for input levels of each sample.
(§3) Hep3B and H2177 cells were obtained from ATCC and were maintained in DMEM high Glucose (Invitrogen) and 10% FCS (Gibco) at 37° C. and 5% CO2. […] Cells were subsequently counted and added to 96 well plates for survival assays as previously described. […]

WT p53 = test: p53 folding in transfected Hep3B cells; assay type: cell-based; conditions: Hep3B transfected with WT p53; metals followed by miaDMSA; FIG. 22
Experimental: as §2, §3

p53 [2] = test: p53 folding status in cells (immunoprecipitation with folding antibodies / western blot); assay type: cell-based; conditions: Beas-2B cells incubated with metals in presence or absence of chelator; FIG. 20, 21
Experimental: Cells were seeded in 6 well plates at 30% cell density. 24 hrs later, medium was replaced with the metal mixtures as indicated. Cells were incubated for 24 hrs and lysed with 100 μl NP-40 lysis buffer (100 mM NaCl 100 mM Tris pH8, 1% NP-40) for 15 min on ice. Cell pellets were discarded in centrifugation (10 min max) and 10% of input was taken for western blot and mixed with 4×SB. The remaining lysate was subjected to immunoprecipitation with p53 Ab240 Ab (1 ul per condition) using 30 μl NP-40 buffer washed goat-anti-mouse magnetic Dynabeads (Thermo Fisher). Lysates and beads were tumbled at 4° C. for 2 hrs and washed 3× with NO-40 buffer. Beads were taken up in 2×SB and together with inputs denatured at 95° C. in a heat block. 8% SDS page gels were used to run all of the samples on western blot. Gels were transferred on nitrocellulose membrane, blocked with milk (TBS-Tween) for 1 hr tumbling and incubated in p53 DO-1 (Santa Cruz Ab, 1:2000) ON at 4° C. The membrane was washed 3× with TBS-tween and secondary Ab (anti-mouse 700, Li-Cor) was used 1:10.000 to incubate the blot for 1 hr at room temperature. The blot was washed with TBS-tween 3× and the signal was measured in a Li-Cor Odyssey. Quantification was measured in the software of Li-Cor and plotted corrected for input levels of each sample.

A549 lung cancer cells = test: Resazurin cell survival assay, metal-induced chemoresistance and chelators; assay type: cell-based; design: dose or concentration left out as unconfirmed; conditions: FIG. 3C
Experimental: as §1

MCF7 breast cancer cells = test: as above; assay type: cell-based; design: dose or concentration left out as unconfirmed; conditions: FIG. 3B
Experimental: as §1

H2170 cells = test: Cell survival assay, metal exposure and chelation treatment; assay type: cell-based; conditions: H2170 pre-treated with metals 1:128, then DMPS and doxorubicin for 72 hrs; FIG. 16
Experimental: as §1
Overall, the methods disclosed in the first example were used in the second example as well. […]
as §3

A549 p53 KO cells = test: Resazurin cell survival assay in p53 KO clone; assay type: cell-based; conditions: p53 KO clone of A549; DMPS (150 μM); doxorubicin; FIG. 3D
Experimental: A549, MCF7 and Beas-2B cells were obtained from ATCC (https://www.atcc.org). Cells were maintained in DMEM high Glucose (Invitrogen) and 10% FCS (Gibco) at 37° C. and 5% CO2. A549 p53 KO cells were generated using a CRISPR p53 KO construct (pLV-U6g-EPCG with target sequence TCCATTGCTTGG GACGGCAAGG, Sigma). Cell lines were selected for GFP expression using FACS sorting followed by clonal selection in neomycin (600 ng/ml, Sigma).
as §1, with “To test the effects of metals on doxorubicin directly, doxorubicin was incubated with metals in solution 24 hrs as a 10× solution, prior to adding to cells, whereas control cells were incubated in metals as described before.” left out

[3] = Beas-2B pre-treated with metals 1:128, then chelator and doxorubicin for 72 hrs, FIG. 14, 15
[4] = metal-loaded Beas-2B, DMPS 150 μM, EDTA 75 μM (equivalent chelation capacity), alone or combined, FIG. 4

For `CC(C)CCOC(=O)[C@@H](S)[C@@H](S)C(=O)O` [miaDMSA, monoisoamylDMSA], the “Reversal of metal-induced chemoresistance to doxorubicin” value (Beas-2B cells; [3]) was “highly potent chelator; also recorded: completely reversed”, the “Reversal of metal-induced chemoresistance to 5-FU” value (BxPC-3 cells) was “reversed” and the “Effect of chelator on resistance/survival with nab-paclitaxel” value (BxPC-3 cells) was “reduce survivability; also recorded: reduction of resistance”. The “Refolding of unfolded p53” value (p53 [1]) was “clearly able to refold some of the p53”, the “Prevention of metal-induced unfolding of p53” value (158 mutant p53) was “prevented or reduced” and the “Prevention of metal-induced unfolding of p53” value (WT p53) was “prevented or reduced”.

For `O=C(O)C(S)C(S)C(=O)O` (centres unmarked) [DMSA, 2,3-dimercaptosuccinic acid], the “Reversal of metal-induced chemoresistance to doxorubicin” value (Beas-2B cells; [3]) was “only partially reversed”, the “Reversal of metal-induced chemoresistance to 5-FU” value (BxPC-3 cells) was “reversed” and the “Effect of chelator on resistance/survival with nab-paclitaxel” value (BxPC-3 cells) was “reduce survivability”. The “Prevention of metal-induced unfolding of p53” value (p53 [2]) was “prevents unfolding”.

For `O=C(O)CN(CCN(CC(=O)O)CC(=O)O)CC(=O)O` [EDTA, ethylenediaminetetraacetic acid], the “Reversal of metal-induced chemoresistance to doxorubicin, non-saturating chelator dose” value (Beas-2B cells; alone or combined) was “not able to restore chemosensitivity substantially”, the “Reversal of metal-induced chemoresistance to doxorubicin” value (Beas-2B cells; [4]) was “able to restore chemosensitivity although not to the extent as seen for DMPS; also recorded: reversed the resistance only partially” and the “Refolding of unfolded p53” value (p53 [1]) was “clearly able to refold some of the p53”.

For `COc1cccc2c1C(=O)c1c(O)c3c(c(O)c1C2=O)C[C@@](O)(C(=O)CO)C[C@@H]3O[C@H]1C[C@H](N)[C@H](O)[C@H](C)O1` [doxorubicin], the “IC50 of doxorubicin in metal-loaded cells relative to cells without added metals” value (Beas-2B cells; Beas-2B loaded with metals (1:128), FIG. 6) was “more than 10 times” and the IC50 of doxorubicin (Beas-2B cells; Beas-2B without added metals, FIG. 6) was “low”.

With `O=S(=O)(O)CC(S)CS` (centres unmarked) [DMPS, 2,3-dimercapto-1-propanesulfonic acid] the “Restoration of sensitivity to doxorubicin (reversal of metal-induced chemoresistance)” value (Beas-2B cells; Beas2B cells primed with 1:128 and 1:256 metals, DMPS 150 μM, FIG. 3A) was “completely restored”, the “Reversal of metal-induced chemoresistance to doxorubicin, non-saturating chelator dose” value (Beas-2B cells; alone or combined) was “not able to restore chemosensitivity substantially” and the “Reversal of metal-induced chemoresistance to doxorubicin” value (Beas-2B cells; [4]) was “almost completely restored; also recorded: reversed chemoresistance completely”. For the same compound, the “Reversal of metal-induced chemoresistance to doxorubicin” value (A549 lung cancer cells) was “reversed the chemoresistance completely”, the “Reversal of metal-induced chemoresistance to doxorubicin” value (MCF7 breast cancer cells) was “reversed the chemoresistance completely” and the “Prevention of metal-induced unfolding of p53” value (p53 [2]) was “prevents unfolding”. For the same compound, the “Reversal of metal-induced chemoresistance to doxorubicin” value (H2170 cells) was “only partially reversed” and the “Metal induced chemoresistance and its reversal by chelator” value (A549 p53 KO cells) was “less pronounced than in native A549 cells”.
